Reference: US11492347B2 (ENYO PHARMA, priority 2018, dated 2022)

What was measured:
[1] = test system: LXFL 1121; test: Cytotoxicity, propidium iodide based monolayer assay; conditions: 96 h; LXFL 1121 lung large cell carcinoma, four days of treatment, T/C=50%; read-out: Absolute IC50
Experimental: (§1) The cytotoxicity was tested for compounds of the invention on five different cell-lines, namely LXFL 1121, MAXF 401, MMXF L-636, PRXF PC-3M and UXF 1138 which are respectively lung large cell carcinoma, breast adeno carcinoma, multiple myeloma, prostate adeno carcinoma and uterine sarcoma.
(§2) A working stock solution of the test compounds was prepared in DMSO at a concentration of 33 mM or 8.25 mM, and small aliquots were stored at −20° C. On each day of an experiment, a frozen aliquot of the working stock solution was thawed and stored at room temperature prior to and during treatment.
(§3) All liquid handling steps were performed using the Tecan Freedom EVO 200 platform. First, serial 2-fold dilutions of the 33 mM DMSO working stock solution were done in DMSO. The DMSO dilutions were then diluted 1:22 into cell culture medium in an intermediate dilution plate. Finally, 10 μl taken from the intermediate dilution plate were transferred to 140 μl/well of the final assay plate. Thus, the DMSO serial dilutions were diluted 1:330 with cell culture medium, and the DMSO concentration in the assay was 0.3% v/v.
Cell lines were routinely passaged once or twice weekly and maintained in culture for up to 20 passages. […]
A modified propidium iodide (PI) based monolayer assay was used to assess the anti-cancer activity of the compounds. Briefly, cells were harvested from exponential phase cultures, counted and plated in 96 well flat-bottom microtiter plates at a cell density of 4,000 to 40,000 cells/well dependent on the cell line's growth rate. […] After an incubation period of 1-2 hours at room temperature, fluorescence (FU) was measured using the Enspire Multimode Plate Reader (excitation λ=530 nm, emission k=620 nm) to quantify the amount of attached viable cells.
Drug effects were expressed in terms of the percentage of the fluorescence signal, obtained by comparison of the mean signal in the treated wells with the mean signal of the untreated controls (expressed by the test-versus-control value, T/C−value [%]): […]

[2] = test system: UXF 1138; test: as above; type: cell-based; conditions: 96 h; UXF 1138 uterine sarcoma, four days of treatment, T/C=50%; read-out: Absolute IC50
Experimental: as §1, §2, §3
(§4) Cell lines were routinely passaged once or twice weekly and maintained in culture for up to 20 passages. Most cell lines were grown at 37° C. in a humidified atmosphere with 5% CO2 in RPMI 1640 medium (25 mM HEPES, with L-glutamine, #FG1385, Biochrom, Berlin, Germany) supplemented with 10% (v/v) fetal calf serum (Sigma, Taufkirchen, Germany) and 0.05 mg/mL gentamicin (Life Technologies, Karlsruhe, Germany).
(§5) A modified propidium iodide (PI) based monolayer assay was used to assess the anti-cancer activity of the compounds. Briefly, cells were harvested from exponential phase cultures, counted and plated in 96 well flat-bottom microtiter plates at a cell density of 4,000 to 40,000 cells/well dependent on the cell line's growth rate. The individual seeding density for each cell line ensure exponential growth conditions over the whole or at least the bigger part of the treatment period. After a 24 h recovery period, to allow the cells to resume exponential growth, 10 μl of culture medium (6 control wells/cell line/plate) or of culture medium with test compounds were added. Compounds were applied at ten concentrations in 2-fold increments in duplicates up to 25 μM or 100 μM and treatment continued for four days. After four days of treatment, cells were next washed with 200 μl PBS to remove dead cells and debris, then 200 μl of a solution containing 7 μg/ml propidium iodide (PI) and 0.1% (v/v) Triton X-100 was added. After an incubation period of 1-2 hours at room temperature, fluorescence (FU) was measured using the Enspire Multimode Plate Reader (excitation λ=530 nm, emission k=620 nm) to quantify the amount of attached viable cells.
(§6) Drug effects were expressed in terms of the percentage of the fluorescence signal, obtained by comparison of the mean signal in the treated wells with the mean signal of the untreated controls (expressed by the test-versus-control value, T/C−value [%]):
(§7) [formula] IC values reported reflect the concentration of the test compound that achieves T/C=50%. Calculation was done by 4 parameter non-linear curve fit.

[3] = test system: MMXF L-363; test: as above; type: cell-based; conditions: Homo sapiens, 96 h; MMXF L-363 multiple myeloma, four days of treatment, T/C=50%; read-out: Absolute IC50
Experimental: as §1, §2, §3, §4, §5, §6, §7

[4] = test system: PRXF PC-3M; test: as above; type: cell-based; conditions: Homo sapiens, 96 h; PRXF PC-3M prostate adeno carcinoma, four days of treatment, T/C=50%; read-out: Absolute IC50
Experimental: as §1, §2, §3, §4, §5, §6, §7

[5] = test system: MAXF 401; test: as above; type: cell-based; conditions: Homo sapiens, MAXF401, 96 h; MAXF 401 breast adeno carcinoma, four days of treatment, T/C=50%; read-out: Absolute IC50
Experimental: as §1, §2, §3, §4, §5, §6, §7

[6] = test system: H1N1 (influenza A/New Caledonia/20/99); test: microbe, parasite or virus in culture; type: cell-based; conditions: H1N1, A549, 48 h
[7] = test system: NFκB; test: NFκB reporter assay, TNFα stimulation of A549 NFκB-NanoLuciferase reporter cells; type: cell-based; conditions: Homo sapiens, 4 ng/ml TNFα, NanoGlo luciferase assay 6 hours later
Description: Compounds of the present invention have been tested for their capacity to inhibit NFκB.
The NFκB reporter construct was made by cloning 5 NFκB responsive elements upstream of a NanoLuciferase reporter gene flanked by AAVS1 genomic sequences.
NFκB Responsive element fused with NanoLuciferase and SV40 late Poly(A) signal was amplified from pNL3.2-NFκB-Nluc (Promega) using NFKB-NLUC-F and NFKB-NLUC-R primers and inserted by Infusion (TaKaRa) in AAVS1 SA-2A-puro-pA donor plasmid (Hockemeyer et al, Nat Biotechnol. 2009, 27, 851-7) digested by Sal1. pCRISPR AAVS1-T2 expressing a guide RNA (gRNA) to target human AAVS1 (T2 target sequence) was constructed by inserting AAVS1-T2A hybridized primers in pLentiCRISPR v2-blast (Sanjana et al, Nat Methods. 2014, 11, 783-4) digested by Bsmbl.
A549 cells were transfected by the plasmids and puromycine selected for 5 days (1 μg mL-1). Then clones were obtained by limiting dilution and selected to maximize TNF dependent NFκB-NanoLuciferase induction.
The reporter cells were seeded on a 96-well plate for overnight with DMEM including 10% FBS. Test compounds were added at varying concentrations. The cells then were treated with 4 ng/ml TNFα (Peprotech, ref E251) in DMEM+10% FBS. NanoGlo luciferase assay (Promega) was carried out 6 hours later. Luminescence was measured using a Spark 20M spectrofluorimeter (Tecan). Values were normalized to the luminescence measured in untreated cells.

Structure (SMILES) | IC50 [1] | IC50 [2] | IC50 [3] | IC50 [4] | IC50 [5] | IC50 [6] | EC50 [7]
CC1(C)CCc2sc(NC(=O)c3ccccc3)c(C(=O)O)c21 [Compound #37, 2-Benzamido-4,4-dimethyl-5,6-dihydrocyclopenta[b]thiophene-3-carboxylic acid] | 24.7 µM | 9.42 µM | 13.9 µM | 9.67 µM | 11.3 µM | 0.196 µM | –
CC1(C)Cc2c(sc(NC(=O)c3ccc(N4CCOCC4)cc3)c2C(=O)O)C(C)(C)C1 [Compound #36, 5,5,7,7-Tetramethyl-2-[(4-morpholinobenzoyl)amino]-4,6-dihydrobenzothiophene-3-carboxylic acid] | – | 0.988 µM | 1.72 µM | – | – | 0.0401 µM | 0.2 µM
COC1CN(c2ccc(C(=O)Nc3sc4c(c3C(=O)O)CC(C)(C)CC4(C)C)cc2)C1 [Compound #58, 2-[[4-(3-Methoxyazetidin-1-yl)benzoyl]amino]-5,5,7,7-tetramethyl-4,6-dihydrobenzothiophene-3-carboxylic acid] | 1.77 µM | 0.819 µM | – | 0.888 µM | – | 0.0009 µM | –
